These are literature values, as cited in article PMC13062086, “A sstR2-targeted radiohybrid theranostic agent for PET imaging and β^- therapy with excellent preclinical performance” (npj Imaging, 2026).

The target of this data set is T1, human serum albumin (HSA) (Homo sapiens, UniProt P02768).
T1 construct: purchased Daicel, Tokyo, Japan Chiralpak HSA column (50 × 3 mm, 5 μm, H13 h-2433)
T1 sequence (P02768 25-609): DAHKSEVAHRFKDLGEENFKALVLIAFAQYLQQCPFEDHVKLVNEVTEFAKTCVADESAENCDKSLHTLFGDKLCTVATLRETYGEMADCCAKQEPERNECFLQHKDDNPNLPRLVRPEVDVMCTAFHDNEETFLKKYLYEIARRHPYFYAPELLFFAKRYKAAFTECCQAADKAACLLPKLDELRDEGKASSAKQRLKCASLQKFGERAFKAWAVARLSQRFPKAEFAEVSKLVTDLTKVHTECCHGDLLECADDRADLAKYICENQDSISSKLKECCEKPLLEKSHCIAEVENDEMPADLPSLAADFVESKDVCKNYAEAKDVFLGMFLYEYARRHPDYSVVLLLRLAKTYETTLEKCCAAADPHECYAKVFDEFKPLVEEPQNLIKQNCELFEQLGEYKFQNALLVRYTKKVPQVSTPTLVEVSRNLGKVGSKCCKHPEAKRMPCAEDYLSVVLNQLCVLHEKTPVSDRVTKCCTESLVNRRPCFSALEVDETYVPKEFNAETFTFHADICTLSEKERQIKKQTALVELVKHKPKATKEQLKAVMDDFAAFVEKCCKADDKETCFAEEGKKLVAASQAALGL
Set-up: method as in earlier work. As to conditions: literature-known values for calibration curve ref 2-3 (SI; main text 45, 46).
Take `O=C(O)c1ccccc1` [Benzoic acid]: the HSA-binding is on record as 34.27%.
Turning to `COc1ccc(Cl)cc1C(=O)NCCc1ccc(S(=O)(=O)NC(=O)NC2CCCCC2)cc1` [Glibenclamide], the HSA-binding is reported as 99.00%.
In the case of `Oc1ccccc1` [Phenol], the HSA-binding is on record as 20.69%.
`Nc1ccccc1` [Aniline]: the HSA-binding was 14.06%.
With `CCCN(CCC)S(=O)(=O)c1ccc(C(=O)O)cc1` [Probenecid], the HSA-binding is given as 95.00%.
`OCc1ccccc1` [Benzyl alcohol]: the HSA-binding is listed as 13.15%.
